{"source": "patent US20230233584A1", "about": "“EXTENDED RELEASE 5-HT RECEPTOR AGONISTS FOR NEUROLOGICAL CONDITIONS” (Diamond Therapeutics Inc., priority 2020, published 2023)", "key": {"[1]": {"system": "5-HT2A receptor activation", "test": "Motor activity and overt stereotypies during minipump dosing", "assay_type": "in vivo", "settings": "psilocybin minipump, 12 days, rats", "protocol": "There were no changes in motor activity (distance travelled, rearing counts), or induction of overt stereotypies, including cardinal signs of 5-HT2A receptor activation (Wet Dog Shakes and Back Muscle Contractions (WDS, BMD). At the completion of 12 days testing the rats were euthanized and cardiac and brain tissue were collected and snap frozen. Histological analysis was performed for the samples."}, "[2]": {"test": "Psilocybin and psilocin plasma pharmacokinetics after s.c. psilocybin", "assay_type": "in vivo, rats", "settings": "rats; for AUC0-tlast, Mean / Cmax, Mean / Cmax/Dose, Mean / tmax, Mean / AUC0-inf, Mean / AUC0-inf/Dose, Mean / Apparent t1/2, Mean / MRT0-inf, Mean: psilocybin in plasma", "protocol": "Psilocybin doses of 0.05, 0.1, 1, 10 mg/kg were used to evaluate psilocybin and psilocin PK in rats. For the doses of psilocybin that positively effect behaviors in the low performers in the PR and 5CSRTT, e.g., 0.05-0.1 mg/kg, the corresponding Cm. of psilocin was ˜7±2 ng/ml at 30 minutes for 0.05 mg/kg, and at a dose of 0.1 mg/kg, the Cm. of psilocin was determined to be ˜12±3 ng/ml at 30 minutes (FIG. 5).\nDetails of the plasma concentration studies are shown in Tables 1-8 (psilocybin) and 9-16 (psilocin). Values in italics are below the lower level of quantitation (BLQ, <1 ng/mL) but were included in calculations. Values in bold and underlined are considered to be outliers and were omitted from calculations. Measured dosing solution concentrations were 0.0460, 0.0967, 0.948 and 9.65 mg/mL for 0.05, 0.1, 1 and 10 […]."}, "[3]": {"test": "Minipump infusion of psilocybin over 12 days: plasma/blood exposure", "assay_type": "in vivo, rats", "settings": "psilocybin minipump, days 4-12, rats", "protocol": "A dose of psilocybin, which is free from perceptual and behavioral side effects, was dosed in rats (N=24) continuously over a period of 12 days using an Alzet minipump implanted in rats of approximately 380-390 g body weight. The pump was primed to deliver psilocybin at 5 mg/kg/day pump concentration. The target plasma concentration was 10 ng/ml psilocin with actual plasma concentration 9.3+1.3 ng/ml over the 12 day study period.\nBlood was collected from rats on days 4, 8 and 12 to measure levels of psilocybin and psilocin in Group B rats. Blood was collected via saphenous bleed at a standard timepoint which will not interfere with 5-choice testing. Psilocin blood levels were in the range of 8-10 ng/ml over days 4-12, while psilocybin blood levels were in the range of 2-5 ng/ml over days 4-12 (FIG. 7A), corresponding to 10 ng/mL psilocin. […] The present observations recorded for psilocybin/psilocin are occurring at exposure levels of psilocin ˜10 ng/ml (e.g., FIG. 5), likely resulting in a low level of CNS 5-HT2A receptor occupancy, and which is insufficient to elicit cardinal signs of 5-HT2A receptor activation such as WDS/BMC in rats (e.g., FIG. 1B)."}}}
{"smiles": "CN(C)CCc1c[nH]c2cccc(OP(=O)(O)O)c12", "note": "[psilocybin, 4-phosphoryloxy-N,N-dimethyltryptamine]", "values": [{"measurement": "motor activity (distance travelled, rearing counts), overt stereotypies incl. WDS and BMC", "setting": "[1]", "value": "no changes"}, {"measurement": "Plasma concentration of psilocybin, Mean", "setting": "[2]; psilocybin 0.05 mg/kg s.c., 0.25 h", "value": 6.20, "unit": "ng/mL"}, {"measurement": "Plasma concentration of psilocybin, Mean", "setting": "[2]; psilocybin 0.05 mg/kg s.c., 0.5 h", "value": 12.5, "unit": "ng/mL"}, {"measurement": "Plasma concentration of psilocybin, Mean", "setting": "[2]; psilocybin 0.05 mg/kg s.c., 0.75 h", "value": 1.07, "unit": "ng/mL"}, {"measurement": "Plasma concentration of psilocybin, Mean", "setting": "[2]; psilocybin 0.05 mg/kg s.c., 1 h", "value": 19.2, "unit": "ng/mL"}, {"measurement": "Plasma concentration of psilocybin, Mean", "setting": "[2]; psilocybin 0.05 mg/kg s.c., 2 h", "value": 0.594, "unit": "ng/mL"}, {"measurement": "Plasma concentration of psilocybin, Mean", "setting": "[2]; psilocybin 0.05 mg/kg s.c., 4 h", "value": 1.95, "unit": "ng/mL"}, {"measurement": "Plasma concentration of psilocybin, Mean", "setting": "[2]; psilocybin 0.05 mg/kg s.c., 6 h", "value": 2.12, "unit": "ng/mL"}, {"measurement": "Plasma concentration of psilocybin, Mean", "setting": "[2]; psilocybin 0.1 mg/kg s.c., 0.25 h", "value": 21.7, "unit": "ng/mL"}, {"measurement": "Plasma concentration of psilocybin, Mean", "setting": "[2]; psilocybin 0.1 mg/kg s.c., 0.5 h", "value": 28.9, "unit": "ng/mL"}, {"measurement": "Plasma concentration of psilocybin, Mean", "setting": "[2]; psilocybin 0.1 mg/kg s.c., 0.75 h", "value": 2.96, "unit": "ng/mL"}, {"measurement": "Plasma concentration of psilocybin, Mean", "setting": "[2]; psilocybin 0.1 mg/kg s.c., 1 h", "value": 2.19, "unit": "ng/mL"}, {"measurement": "Plasma concentration of psilocybin, Mean", "setting": "[2]; psilocybin 0.1 mg/kg s.c., 2 h", "value": 1.76, "unit": "ng/mL"}, {"measurement": "Plasma concentration of psilocybin, Mean", "setting": "[2]; psilocybin 0.1 mg/kg s.c., 4 h", "value": 2.55, "unit": "ng/mL"}, {"measurement": "Plasma concentration of psilocybin, Mean", "setting": "[2]; psilocybin 0.1 mg/kg s.c., 6 h", "value": 0.921, "unit": "ng/mL"}, {"measurement": "Plasma concentration of psilocybin, Mean", "setting": "[2]; psilocybin 1.0 mg/kg s.c., 0.25 h", "value": 75.2, "unit": "ng/mL"}, {"measurement": "Plasma concentration of psilocybin, Mean", "setting": "[2]; psilocybin 1.0 mg/kg s.c., 0.5 h", "value": 47.3, "unit": "ng/mL"}, {"measurement": "Plasma concentration of psilocybin, Mean", "setting": "[2]; psilocybin 1.0 mg/kg s.c., 0.75 h", "value": 35.8, "unit": "ng/mL"}, {"measurement": "Plasma concentration of psilocybin, Mean", "setting": "[2]; psilocybin 1.0 mg/kg s.c., 1 h", "value": 35.1, "unit": "ng/mL"}, {"measurement": "Plasma concentration of psilocybin, Mean", "setting": "[2]; psilocybin 1.0 mg/kg s.c., 2 h", "value": 2.19, "unit": "ng/mL"}, {"measurement": "Plasma concentration of psilocybin, Mean", "setting": "[2]; psilocybin 1.0 mg/kg s.c., 4 h", "value": 1.12, "unit": "ng/mL"}, {"measurement": "Plasma concentration of psilocybin, Mean", "setting": "[2]; psilocybin 1.0 mg/kg s.c., 6 h", "value": 0.929, "unit": "ng/mL"}, {"measurement": "Plasma concentration of psilocybin, Mean", "setting": "[2]; psilocybin 10 mg/kg s.c., 0.25 h", "value": 1030, "unit": "ng/mL"}, {"measurement": "Plasma concentration of psilocybin, Mean", "setting": "[2]; psilocybin 10 mg/kg s.c., 0.5 h", "value": 1544, "unit": "ng/mL"}, {"measurement": "Plasma concentration of psilocybin, Mean", "setting": "[2]; psilocybin 10 mg/kg s.c., 0.75 h", "value": 344, "unit": "ng/mL"}, {"measurement": "Plasma concentration of psilocybin, Mean", "setting": "[2]; psilocybin 10 mg/kg s.c., 1 h", "value": 269, "unit": "ng/mL"}, {"measurement": "Plasma concentration of psilocybin, Mean", "setting": "[2]; psilocybin 10 mg/kg s.c., 2 h", "value": 101, "unit": "ng/mL"}, {"measurement": "Plasma concentration of psilocybin, Mean", "setting": "[2]; psilocybin 10 mg/kg s.c., 4 h", "value": 1.80, "unit": "ng/mL"}, {"measurement": "Plasma concentration of psilocybin, Mean", "setting": "[2]; psilocybin 10 mg/kg s.c., 6 h", "value": 1.32, "unit": "ng/mL"}, {"measurement": "AUC0-tlast, Mean", "setting": "[2]; psilocybin 0.05 mg/kg s.c.", "value": 10.7, "unit": "ng·h/mL"}, {"measurement": "Cmax, Mean", "setting": "[2]; psilocybin 0.05 mg/kg s.c.", "value": 18.9, "unit": "ng/mL"}, {"measurement": "Cmax/Dose, Mean", "setting": "[2]; psilocybin 0.05 mg/kg s.c.", "value": 377, "unit": "kg·ng/mL/mg"}, {"measurement": "tmax, Mean", "setting": "[2]; psilocybin 0.05 mg/kg s.c.", "value": 36, "unit": "min"}, {"measurement": "AUC0-tlast, Mean", "setting": "[2]; psilocybin 0.1 mg/kg s.c.", "value": 11.4, "unit": "ng·h/mL"}, {"measurement": "Cmax, Mean", "setting": "[2]; psilocybin 0.1 mg/kg s.c.", "value": 31.4, "unit": "ng/mL"}, {"measurement": "Cmax/Dose, Mean", "setting": "[2]; psilocybin 0.1 mg/kg s.c.", "value": 314, "unit": "kg·ng/mL/mg"}, {"measurement": "tmax, Mean", "setting": "[2]; psilocybin 0.1 mg/kg s.c.", "value": 19.3, "unit": "min"}, {"measurement": "AUC0-inf, Mean", "setting": "[2]; psilocybin 1.0 mg/kg s.c.", "value": 47.9, "unit": "ng·h/mL"}, {"measurement": "AUC0-inf/Dose, Mean", "setting": "[2]; psilocybin 1.0 mg/kg s.c.", "value": 47.9, "unit": "kg·ng·h/mL/mg"}, {"measurement": "AUC0-tlast, Mean", "setting": "[2]; psilocybin 1.0 mg/kg s.c.", "value": 53.1, "unit": "ng·h/mL"}, {"measurement": "Apparent t1/2, Mean", "setting": "[2]; psilocybin 1.0 mg/kg s.c.", "value": 26.7, "unit": "min"}, {"measurement": "Cmax, Mean", "setting": "[2]; psilocybin 1.0 mg/kg s.c.", "value": 78.3, "unit": "ng/mL"}, {"measurement": "Cmax/Dose, Mean", "setting": "[2]; psilocybin 1.0 mg/kg s.c.", "value": 78.3, "unit": "kg·ng/mL/mg"}, {"measurement": "MRT0-inf, Mean", "setting": "[2]; psilocybin 1.0 mg/kg s.c.", "value": 44.8, "unit": "min"}, {"measurement": "tmax, Mean", "setting": "[2]; psilocybin 1.0 mg/kg s.c.", "value": 21.4, "unit": "min"}, {"measurement": "AUC0-inf, Mean", "setting": "[2]; psilocybin 10 mg/kg s.c.", "value": 2156, "unit": "ng·h/mL"}, {"measurement": "AUC0-inf/Dose, Mean", "setting": "[2]; psilocybin 10 mg/kg s.c.", "value": 216, "unit": "kg·ng·h/mL/mg"}, {"measurement": "AUC0-tlast, Mean", "setting": "[2]; psilocybin 10 mg/kg s.c.", "value": 1707, "unit": "ng·h/mL"}, {"measurement": "Apparent t1/2, Mean", "setting": "[2]; psilocybin 10 mg/kg s.c.", "value": 34, "unit": "min"}, {"measurement": "Cmax, Mean", "setting": "[2]; psilocybin 10 mg/kg s.c.", "value": 3595, "unit": "ng/mL"}, {"measurement": "Cmax/Dose, Mean", "setting": "[2]; psilocybin 10 mg/kg s.c.", "value": 359, "unit": "kg·ng/mL/mg"}, {"measurement": "MRT0-inf, Mean", "setting": "[2]; psilocybin 10 mg/kg s.c.", "value": 43, "unit": "min"}, {"measurement": "tmax, Mean", "setting": "[2]; psilocybin 10 mg/kg s.c.", "value": 30, "unit": "min"}, {"measurement": "psilocybin blood levels", "setting": "[3]", "value": "2 to 5", "unit": "ng/mL"}]}
